Reference: patent US20170114030A1, “COMPOSITION WITH HIGH CONTENT OF CYCLIC DIPEPTIDE” (SUNTORY HOLDINGS LIMITED, priority 2014, published 2017)

Legend:
plasma active GLP-1 = experiment: In vivo plasma active GLP-1 level-increasing action after oral administration; design: species or system mice; conditions: 10 mg/kg orally; for Plasma active GLP-1 level (relative value to control group as 100), Average value: male C57/BL6J mice, blood after 30 minutes, 0.5% CMC-Na group = 100; for Significant difference (p < 0.05) vs control group, plasma active GLP-1 level: mice, 30 minutes, Student's t-test
Procedure: (§1) In the Test Examples below, data were represented as average value±standard error. In Test Examples 1, 2, and 3, a Student's t-test was used for a statistical test, and in other Test Examples, one-way ANOVA was carried out for dispersion analysis followed by a multiple comparison test by using a Dunnet's test. […] All of these analyses were carried out by using an SPSS for Windows release 17.0 (manufactured by SPSS Inc.).
Among the cyclic dipeptides, cyclic dipeptides for which an in vitro GLP-1 secretion-accelerating action was found and highly lipid-soluble cyclic dipeptides were used in the following experiment. Seven-week-old male C57/BL6J mice were purchased from CLEA Japan, Inc. for use, and they were subjected to an experiment after 1 week of a habituation period. Each animal was grown in an animal room with an air conditioning system (temperature: 23.5±1.0° C., humidity: 55±10 RH %, air ventilation: 12 to 15 times/hour, illumination: from 7:00 to 19:00/day).
After the habituation period, the mice were subjected to 5.5 hours of food deprivation and 2 hours of water deprivation. Thereafter, a cyclic dipeptide dissolved or suspended in a 0.5% CMC-Na aqueous solution in 10 mg/kg was orally administered to each mouse forcibly. After 30 minutes, the blood was collected from the abdominal vena cava under anesthesia, and 1 μL of heparin sodium and 1 μL of 10 mM Sitagliptin phosphate were added to each collected blood, which was then subjected to centrifugation at 8000 rpm for 10 minutes to recover the plasma, and the plasma active GLP-1 level was measured by using the ELISA kit. In the analysis, the active GLP-1 level for a group administered with 0.5% CMC-Na aqueous solution was defined as 100, and relative values thereto were used.
In each Table, cyclic dipeptides for which an in vivo plasma active GLP-1 level-increasing action was found and was not found are listed.

NCI-H716 cells = experiment: In vitro GLP-1 secretion-accelerating action (active GLP-1 ELISA); type: cell-based; conditions: for Significant difference (p < 0.05) vs control group, amount of active GLP-1 secreted: 1 hour, Student's t-test; for Amount of active GLP-1 secreted (relative value to control group as 100), Average value: after 1 hour, group with no cyclic dipeptide = 100
Procedure: as §1
Among the cyclic dipeptides, 92 highly water-soluble cyclic dipeptides were used in the following experiment. In each well of a Poly-L-Lysine 96-well plate, NCI-H716 cells suspended in 100 μL of a DMEM (with 10% FBS, 2 mM glutamine, and 1% antibiotics added in advance) were seeded at 0.5×10^5 cells/well, and cultured in a CO2 incubator (manufactured by ESPEC CORP.) for 48 hours. After washing with PBS(+), 100 μL of a PBS(+) solution with each cyclic dipeptide at a final concentration of 10 mM and 10 μM of Sitagliptin phosphate added therein was added to the cells. After 1 hour, the resultant solution was recovered, and the amount of active GLP-1 in the solution was measured by using the ELISA kit. In the analysis, the amount of active GLP-1 for a group with no cyclic dipeptide added was defined as 100, and relative values thereto were used.
In each Table, cyclic dipeptides for which an in vitro active GLP-1 secretion-accelerating activity was found and was not found are listed.

[1] = Experiment 5, cyclic dipeptide 10 mM with 10 μM Sitagliptin phosphate
[2] = Experiment 3, cyclic dipeptide 10 mM with 10 μM Sitagliptin phosphate
[3] = Experiment 2, cyclic dipeptide 10 mM with 10 μM Sitagliptin phosphate

## CCC(C)C1NC(=O)C(CC(N)=O)NC1=O (centres unmarked) [compound 163]
Plasma active GLP-1; Experiment 10
  Plasma active GLP-1 level (relative value to control group as 100), Average value: 327
  Significant difference (p < 0.05) vs control group, plasma active GLP-1 level: Yes

## CC(C)C1NC(=O)C(Cc2c[nH]c3ccccc23)NC1=O (centres unmarked) [compound 61]
Plasma active GLP-1; Experiment 3
  Plasma active GLP-1 level (relative value to control group as 100), Average value: 117
  Significant difference (p < 0.05) vs control group, plasma active GLP-1 level: No

## CC(C)CC1NC(=O)C(Cc2c[nH]c3ccccc23)NC1=O (centres unmarked) [compound 39]
Plasma active GLP-1; Experiment 3
  Plasma active GLP-1 level (relative value to control group as 100), Average value: 229
  Significant difference (p < 0.05) vs control group, plasma active GLP-1 level: Yes

## O=C1NC(CS)C(=O)NC1CO (centres unmarked) [compound 180]
Plasma active GLP-1; Experiment 10
  Plasma active GLP-1 level (relative value to control group as 100), Average value: 259
  Significant difference (p < 0.05) vs control group, plasma active GLP-1 level: Yes

## CC(C)C1NC(=O)C(CC(N)=O)NC1=O (centres unmarked) [compound 141]
Plasma active GLP-1; Experiment 10
  Plasma active GLP-1 level (relative value to control group as 100), Average value: 191
  Significant difference (p < 0.05) vs control group, plasma active GLP-1 level: Yes

## NC(=O)CCC1NC(=O)C(Cc2c[nH]c3ccccc23)NC1=O (centres unmarked) [compound 82]
Plasma active GLP-1; Experiment 6
  Plasma active GLP-1 level (relative value to control group as 100), Average value: 90
  Significant difference (p < 0.05) vs control group, plasma active GLP-1 level: No

## CCC(C)C1NC(=O)C(CCCCN)NC1=O (centres unmarked) [compound 150]
Plasma active GLP-1; Experiment 10
  Plasma active GLP-1 level (relative value to control group as 100), Average value: 282
  Significant difference (p < 0.05) vs control group, plasma active GLP-1 level: Yes

## CC(C)C1NC(=O)C(Cc2ccc(O)cc2)NC1=O (centres unmarked) [compound 88]
Plasma active GLP-1; Experiment 7
  Plasma active GLP-1 level (relative value to control group as 100), Average value: 385
  Significant difference (p < 0.05) vs control group, plasma active GLP-1 level: Yes

## CSCCC1NC(=O)C(C)NC1=O (centres unmarked) [compound 125]
Plasma active GLP-1; Experiment 9
  Plasma active GLP-1 level (relative value to control group as 100), Average value: 133

## CCC(C)C1NC(=O)C(C(C)O)NC1=O (centres unmarked) [compound 161]
Plasma active GLP-1; Experiment 10
  Plasma active GLP-1 level (relative value to control group as 100), Average value: 282
  Significant difference (p < 0.05) vs control group, plasma active GLP-1 level: Yes

## O=C(O)CC1NC(=O)C(Cc2ccc(O)cc2)NC1=O (centres unmarked) [compound 91]
Plasma active GLP-1; Experiment 7
  Plasma active GLP-1 level (relative value to control group as 100), Average value: 181
  Significant difference (p < 0.05) vs control group, plasma active GLP-1 level: No

## O=C1NC(Cc2ccc(O)cc2)C(=O)NC1CO (centres unmarked) [compound 29]
Plasma active GLP-1; Experiment 4
  Plasma active GLP-1 level (relative value to control group as 100), Average value: 95
  Significant difference (p < 0.05) vs control group, plasma active GLP-1 level: No

## O=C(O)CCC1NC(=O)CNC1=O (centres unmarked) [compound 24]
NCI-H716 cells; Experiment 5, 10 mM
  Significant difference (p < 0.05) vs control group, amount of active GLP-1 secreted: No
NCI-H716 cells; [1]
  Amount of active GLP-1 secreted (relative value to control group as 100), Average value: 89

## CC1NC(=O)C(CC(=O)O)NC1=O (centres unmarked) [compound 153]
NCI-H716 cells; Experiment 3, 10 mM
  Significant difference (p < 0.05) vs control group, amount of active GLP-1 secreted: No
NCI-H716 cells; [2]
  Amount of active GLP-1 secreted (relative value to control group as 100), Average value: 94

## NC(=O)CC1NC(=O)C(Cc2cnc[nH]2)NC1=O (centres unmarked) [compound 111]
NCI-H716 cells; Experiment 3, 10 mM
  Significant difference (p < 0.05) vs control group, amount of active GLP-1 secreted: Yes
NCI-H716 cells; [2]
  Amount of active GLP-1 secreted (relative value to control group as 100), Average value: 341

## NC(=O)CCC1NC(=O)CNC1=O (centres unmarked) [compound 36]
NCI-H716 cells; Experiment 5, 10 mM
  Significant difference (p < 0.05) vs control group, amount of active GLP-1 secreted: No
NCI-H716 cells; [1]
  Amount of active GLP-1 secreted (relative value to control group as 100), Average value: 75

## NC(=O)CC1NC(=O)C(CC(=O)O)NC1=O (centres unmarked) [compound 170]
NCI-H716 cells; Experiment 3, 10 mM
  Significant difference (p < 0.05) vs control group, amount of active GLP-1 secreted: No
NCI-H716 cells; [2]
  Amount of active GLP-1 secreted (relative value to control group as 100), Average value: 125

## NCCCCC1NC(=O)C(CO)NC1=O (centres unmarked) [compound 98]
NCI-H716 cells; Experiment 3, 10 mM
  Significant difference (p < 0.05) vs control group, amount of active GLP-1 secreted: Yes
NCI-H716 cells; [2]
  Amount of active GLP-1 secreted (relative value to control group as 100), Average value: 71

## NCCCC[C@@H]1NC(=O)CNC1=O [compound 96]
NCI-H716 cells; Experiment 3, 10 mM
  Significant difference (p < 0.05) vs control group, amount of active GLP-1 secreted: Yes
NCI-H716 cells; [2]
  Amount of active GLP-1 secreted (relative value to control group as 100), Average value: 133

## NC(=O)CCC1NC(=O)CNC1=O (centres unmarked) [compound 126]
NCI-H716 cells; Experiment 3, 10 mM
  Significant difference (p < 0.05) vs control group, amount of active GLP-1 secreted: Yes
NCI-H716 cells; [2]
  Amount of active GLP-1 secreted (relative value to control group as 100), Average value: 210

## O=C1CNC(=O)C(Cc2c[nH]cn2)N1 (centres unmarked) [compound 27]
NCI-H716 cells; Experiment 5, 10 mM
  Significant difference (p < 0.05) vs control group, amount of active GLP-1 secreted: No
NCI-H716 cells; [1]
  Amount of active GLP-1 secreted (relative value to control group as 100), Average value: 82

## CC(C)CC1NC(=O)CNC1=O (centres unmarked) [compound 21]
NCI-H716 cells; Experiment 5, 10 mM
  Significant difference (p < 0.05) vs control group, amount of active GLP-1 secreted: No
NCI-H716 cells; [1]
  Amount of active GLP-1 secreted (relative value to control group as 100), Average value: 131

## NCCCCC1NC(=O)C(CCC(N)=O)NC1=O (centres unmarked) [compound 102]
NCI-H716 cells; Experiment 3, 10 mM
  Significant difference (p < 0.05) vs control group, amount of active GLP-1 secreted: No
NCI-H716 cells; [2]
  Amount of active GLP-1 secreted (relative value to control group as 100), Average value: 112

## O=C1N[C@@H](Cc2c[nH]c3ccccc23)C(=O)N[C@H]1CO [compound 78]
NCI-H716 cells; Experiment 2, 10 mM
  Significant difference (p < 0.05) vs control group, amount of active GLP-1 secreted: No
NCI-H716 cells; [3]
  Amount of active GLP-1 secreted (relative value to control group as 100), Average value: 119

## N=C(N)NCCCC1NC(=O)CNC1=O (centres unmarked) [compound 117]
NCI-H716 cells; Experiment 3, 10 mM
  Significant difference (p < 0.05) vs control group, amount of active GLP-1 secreted: No
NCI-H716 cells; [2]
  Amount of active GLP-1 secreted (relative value to control group as 100), Average value: 98

## NCCCCC1NC(=O)C(CC(N)=O)NC1=O (centres unmarked) [compound 101]
NCI-H716 cells; Experiment 3, 10 mM
  Significant difference (p < 0.05) vs control group, amount of active GLP-1 secreted: Yes
NCI-H716 cells; [2]
  Amount of active GLP-1 secreted (relative value to control group as 100), Average value: 250

## O=C(O)CC[C@@H]1NC(=O)[C@@H]2CCCN2C1=O [compound 45]
NCI-H716 cells; Experiment 1, 10 mM
  Significant difference (p < 0.05) vs control group, amount of active GLP-1 secreted: No
NCI-H716 cells; Experiment 1, cyclic dipeptide 10 mM with 10 μM Sitagliptin phosphate
  Amount of active GLP-1 secreted (relative value to control group as 100), Average value: 145

## NC(=O)CCC1NC(=O)C(CO)NC1=O (centres unmarked) [compound 136]
NCI-H716 cells; Experiment 3, 10 mM
  Significant difference (p < 0.05) vs control group, amount of active GLP-1 secreted: No
NCI-H716 cells; [2]
  Amount of active GLP-1 secreted (relative value to control group as 100), Average value: 251

## CC(O)C1NC(=O)C(CCCNC(=N)N)NC1=O (centres unmarked) [compound 168]
NCI-H716 cells; Experiment 3, 10 mM
  Significant difference (p < 0.05) vs control group, amount of active GLP-1 secreted: No
NCI-H716 cells; [2]
  Amount of active GLP-1 secreted (relative value to control group as 100), Average value: 142

## N=C(N)NCCCC1NC(=O)C(CCCNC(=N)N)NC1=O (centres unmarked) [compound 212]
NCI-H716 cells; Experiment 4, 10 mM
  Significant difference (p < 0.05) vs control group, amount of active GLP-1 secreted: Yes
NCI-H716 cells; Experiment 4, cyclic dipeptide 10 mM with 10 μM Sitagliptin phosphate
  Amount of active GLP-1 secreted (relative value to control group as 100), Average value: 1050

## CC(C)C[C@@H]1NC(=O)[C@H](CCCCN)NC1=O [compound 68]
NCI-H716 cells; Experiment 2, 10 mM
  Significant difference (p < 0.05) vs control group, amount of active GLP-1 secreted: No
NCI-H716 cells; [3]
  Amount of active GLP-1 secreted (relative value to control group as 100), Average value: 208

## CC1NC(=O)C(CC(N)=O)NC1=O (centres unmarked) [compound 124]
NCI-H716 cells; Experiment 3, 10 mM
  Significant difference (p < 0.05) vs control group, amount of active GLP-1 secreted: No
NCI-H716 cells; [2]
  Amount of active GLP-1 secreted (relative value to control group as 100), Average value: 116

## NC(=O)CC[C@@H]1NC(=O)[C@H](Cc2ccccc2)NC1=O [compound 65]
NCI-H716 cells; Experiment 2, 10 mM
  Significant difference (p < 0.05) vs control group, amount of active GLP-1 secreted: Yes
NCI-H716 cells; [3]
  Amount of active GLP-1 secreted (relative value to control group as 100), Average value: 227
